The nature of series [1]: Reverse pH gradient drug encapsulation efficiency in liposomes. It counts as physicochemical. To be noted: for drug encapsulation: reverse pH gradient technology, FIG. 10. On the procedure:
The dried lipid film was hydrated with a buffer containing either ammonium phosphate, ammonium sulfate, sodium phosphate, or sodium sulfate (300 mM, pH 7.4) and vortexed for 1 minute to remove any adhering lipid film. Sonication in a bath sonicator (ULTRAsonik 28X) for 1 minute at room temperature produced multilamellar vesicles (MLV). MLVs were then sonicated with a Ti-probe (Branson 450 sonifier) for 2 minutes to produce small unilamellar vesicles (SUV), indicated by the formation of a translucent solution. Extrusion through a 100 nm pore size polycarbonate filter (Whatman) was the final stage of a stepwise series of extrusions to reduce SUV size.
The prepared liposomes with internal buffer at pH 3 or 7.4 were passed through a Sephadex G-50 column equilibrated with HEPES buffered saline (HBS; 20 mM HEPES, 150 mM NaCl, pH 7.4) to exchange the external buffer. […] The solution was heated at 50° C. for 20 minutes, left to stand 4 hours at room temperature, and then applied to a Sephadex G-50 column and eluted with MilliQ water.

The conditions of series [2]: 0.8 mg/Kg injected as free drug, 'would very likely be' (Gurley et al.); cited from earlier work.
The test system of another series is U87 cells. The series is described as follows: In vivo anti-tumor activity, very large U87 flank tumors (180-200 mm^3). To be noted: treatment over two weeks.
Series [3] can be described thus: Acute toxicity of free staurosporine at high dose. It is filed as in vivo. To be noted: 5 mg/Kg. The source says: Future, more comprehensive studies will use even lower doses of staurosporine alone, and in combination with other agents.

With `COc1cc2ncnc(Nc3ccc(F)c(Cl)c3)c2cc1OCCCN1CCOCC1` [Gefitinib, N-(3-chloro-4-fluoro-phenyl)-7-methoxy-6-(3-morpholin-4-ylpropoxy)quinazolin-4-amine], in series [1], the drug encapsulation entry is “good efficacy”.
On the same count and under the same terms, as for `O=c1cc(N2CCOCC2)oc2c(-c3ccccc3)cccc12` [LY29004], the entry is “good efficacy”.
Consider `CN[C@@H]1C[C@H]2O[C@@](C)([C@@H]1OC)n1c3ccccc3c3c4c(c5c6ccccc6n2c5c31)C(=O)NC4` [staurosporine, (9S,10R,11R,13R)-2,3,10,11,12,13-Hexahydro-10-methoxy-9-methyl-11-(methylamino)-9,13-epoxy-1H,9H-diindolo[1,2,3-gh:3′,2′,1′-1m]pyrrolo[3,4-j][1,7]benzodiazonin-1-one], for which the “liposomal loading capacity, peak value” in series [1] (drug to lipid ratio 0.09 (mole/mole)) amounted to 70%. Besides, the “increase of encapsulation when a gradient existed” value in series [1] (internal buffer pH 7.4 versus pH 3, external buffer pH 3) worked out at 14 fold. Moreover, in series [1] (internal pH 5, external pH 7.4), the encapsulation rate result is “very low”. Further, the “fraction cleared after one circulatory pass” value in series [2] is recorded as 99%. Moreover, the body weight entry in the series with U87 cells is reported as “body weight did decline”. Besides, in the series on U87 cells (relative to PBS (p<0.004)), the tumor growth entry is given as “no demonstrable effect”. In addition, the acute toxicity entry in series [3] was “acutely lethal”.

The record behind these values is patent US20140356416A1, “LIPOSOMAL DRUG ENCAPSULATION” (priority 2011, published 2014).
